We go through one molecule from patent US7700617B2, “Salt of naphthyridine carboxylic acid derivative” (LG Life Sciences, Ltd., priority 1997, dated 2010).

≈ marks a conversion by molar mass, not a printed value.

For orientation: solubility means the concentration that dissolves in the medium under given conditions. Lower therefore signals little dissolved substance.

This data set can be described thus: Water solubility. As to conditions: 25 °C.

Consider `CO/N=C1\CN(c2nc3c(cc2F)c(=O)c(C(=O)O)cn3C2CC2)CC1CN` (stereo not shown) [Free form, 7-(3-aminomethyl-4-methoxyiminopyrrolidin-1-yl)-1-cyclopropyl-6-fluoro-4-oxo-1,4-dihydro-1,8-naphthyridine-3-carboxylic acid], for which the solubility is 7 µg/mL (≈ 18 µM).
